The source of these data is ChEMBL document CHEMBL4673346, “Discovery of a benzimidazole series as the first highly potent and selective ACSL1 inhibitors” (Bioorg Med Chem Lett, 2021).

Converted amounts (≈) assume the structure as drawn.

Usually IC50 stands for the point on the concentration scale where inhibition reaches its midpoint. In general, half-life refers to how long it takes for the measured level to halve. Low readings indicate rapid decline, high ones slow decline. For orientation: IC30 means the concentration at which the effect reaches the 30% level. The low end stands for an effect from little substance, the high end for a need for much substance. One may read the solubility as the concentration that dissolves in the medium under given conditions. A low value points to little dissolved substance. As usually defined, the fraction unbound is free concentration divided by total concentration. One may read the clearance as the volume of plasma or blood freed of the substance per unit of time. Low readings indicate a low capacity for elimination, high ones a high capacity for elimination. The term AUC denotes the area under the concentration-time curve, a measure of exposure. For orientation: Cmax means the maximum level reached in the sampled fluid or tissue.

Series [1] concerns the target T1, Long-chain-fatty-acid--CoA ligase 1 (Mus musculus, UniProt P41216).
T1 sequence (P41216 whole entry): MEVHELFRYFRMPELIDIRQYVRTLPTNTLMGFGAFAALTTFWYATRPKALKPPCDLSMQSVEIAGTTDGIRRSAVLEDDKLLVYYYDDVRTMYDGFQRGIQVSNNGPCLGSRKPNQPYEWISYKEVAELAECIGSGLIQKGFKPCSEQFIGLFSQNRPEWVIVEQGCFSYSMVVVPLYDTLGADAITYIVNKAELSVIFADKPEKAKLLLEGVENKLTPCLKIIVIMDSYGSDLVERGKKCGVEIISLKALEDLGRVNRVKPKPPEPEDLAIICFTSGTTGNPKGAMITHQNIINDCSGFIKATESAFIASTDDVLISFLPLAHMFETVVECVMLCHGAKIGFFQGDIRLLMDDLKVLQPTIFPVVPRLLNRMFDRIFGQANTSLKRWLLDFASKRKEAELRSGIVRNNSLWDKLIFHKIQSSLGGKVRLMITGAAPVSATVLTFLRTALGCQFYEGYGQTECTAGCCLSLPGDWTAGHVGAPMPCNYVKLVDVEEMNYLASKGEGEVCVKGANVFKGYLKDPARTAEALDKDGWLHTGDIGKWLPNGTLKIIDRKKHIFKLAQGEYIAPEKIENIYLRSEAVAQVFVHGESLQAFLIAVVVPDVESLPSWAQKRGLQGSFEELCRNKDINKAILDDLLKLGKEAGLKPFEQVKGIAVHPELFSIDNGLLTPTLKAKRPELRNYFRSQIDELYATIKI
Nature of the series: Inhibition of recombinant mouse ACSL1 assessed as reduction in […] prodution incubated for 90 mins in presence of Coenzyme A, ATP and MgCl2 by MALDI-TOF MS analysis.

A short description of series [2]: Half life in rat at 0.5 mg/kg, iv. It counts as ADME, organism-based. The following applies: in vivo.
A short description of series [3]: Oral bioavailability in rat at 1 mg/kg. Conditions: in vivo. It counts as ADME, organism-based.
For series [4], the system named is Mus musculus. The series is described as follows: In vivo inhibition of ACSL1 in mouse assessed as reduction in acyl-coA production in liver administered orally using palmitoleic acid as substrate and measured after 17 hrs. It counts as functional, organism-based. The following applies: dose 0.3-1 mg/kg.
For series [5], the target named is Cytochrome P450 2D6 (Homo sapiens, UniProt P10635). Nature of the series: Inhibition of CYP2D6 (unknown origin). It counts as ADME.
Series [6] is described as follows: Inhibition of insulin/isobutyl-1-methylxanthin/dexamethasone-induced adipocytes differentiation in mouse 3T3-L1 cells by measuring 14C-triglyceride levels incubated for 1 hrs followed by oleic acid addition and measured after 10 mins by microbeta scintillation counting method. The series is classed as functional. The following applies: 3T3-L1, 1.167 h, time 70 min.

Series [7] concerns the target Cytochrome P450 2C9 (Homo sapiens, UniProt P11712). Nature of the series: Inhibition of CYP2C9 (unknown origin). The series is classed as ADME.
Series [8] in a line: Solubility of compound in pH 1.2. It counts as physicochemical. The following applies: buffer.
Series [9] addresses Cytochrome P450 3A4 (Homo sapiens, UniProt P08684). Nature of the series: Inhibition of CYP3A4 (unknown origin). The series is classed as ADME.
Series [10] is described as follows: Fraction unbound in rat plasma. It counts as ADME, cell-free.
A short description of series [11]: Total clearance in rat at 0.5 mg/kg, iv. The following applies: in vivo. It counts as ADME, organism-based.
Series [12] is described as follows: Metabolic stability in mouse liver microsomes assessed as compound remaining after 30 mins. The series is classed as ADME, Microsome. The following applies: read-out: Stabilty.
Series [13] concerns the target Fatty acid CoA ligase Acsl3 (Homo sapiens, UniProt O95573). Nature of the series: Inhibition of recombinant human ACSL3 assessed as reduction in […] prodution incubated for 90 mins in presence of Coenzyme A, ATP and MgCl2 by MALDI-TOF MS analysis.
Series [14] deals with Long-chain-fatty-acid--CoA ligase 4 (Homo sapiens, UniProt O60488). The series is described as follows: Inhibition of recombinant human ACSL4 assessed as reduction in […] prodution incubated for 120 mins in presence of Coenzyme A, ATP and MgCl2 by MALDI-TOF MS analysis.
Series [15] is described as follows: AUC in rat at 0.5 mg/kg, iv. The following applies: in vivo. The series is classed as ADME, organism-based. Also noted: dose 0.5 mg/kg.
Series [16] is described as follows: Solubility of compound in pH 6.8. It counts as physicochemical. Conditions: buffer.
Series [17] concerns the target T2, Long-chain-fatty-acid--CoA ligase 1 (Homo sapiens, UniProt P33121).
T2 sequence (P33121 whole entry): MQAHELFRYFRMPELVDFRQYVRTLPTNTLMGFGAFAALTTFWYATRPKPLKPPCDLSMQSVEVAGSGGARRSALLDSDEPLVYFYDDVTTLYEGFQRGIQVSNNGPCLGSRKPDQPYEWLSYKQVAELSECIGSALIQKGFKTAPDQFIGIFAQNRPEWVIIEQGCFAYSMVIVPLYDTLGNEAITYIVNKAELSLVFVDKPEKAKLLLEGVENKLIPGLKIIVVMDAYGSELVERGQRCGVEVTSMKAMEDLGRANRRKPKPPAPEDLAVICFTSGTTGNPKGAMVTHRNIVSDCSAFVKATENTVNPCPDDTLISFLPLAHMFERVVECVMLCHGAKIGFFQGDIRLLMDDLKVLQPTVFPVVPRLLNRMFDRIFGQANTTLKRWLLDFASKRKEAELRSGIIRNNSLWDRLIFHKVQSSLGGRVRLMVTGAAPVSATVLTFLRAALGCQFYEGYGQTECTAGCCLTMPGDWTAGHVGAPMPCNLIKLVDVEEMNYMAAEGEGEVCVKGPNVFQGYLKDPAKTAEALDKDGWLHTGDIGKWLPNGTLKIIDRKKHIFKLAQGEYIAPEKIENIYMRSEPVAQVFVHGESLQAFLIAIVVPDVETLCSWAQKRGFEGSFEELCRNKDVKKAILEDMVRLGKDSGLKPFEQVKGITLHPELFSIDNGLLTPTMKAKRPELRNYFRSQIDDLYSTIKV
Nature of the series: Inhibition of recombinant human ACSL1 assessed as reduction in […] prodution incubated for 90 mins in presence of Coenzyme A, ATP and MgCl2 by MALDI-TOF MS analysis.

The nature of series [18]: Metabolic stability in rat liver microsomes assessed as compound remaining after 30 mins. It counts as ADME, Microsome. The following applies: read-out: Stabilty. (In general: Liver microsomes are vesicles of endoplasmic reticulum, rich in cytochrome P450 enzymes.)
Series [19] concerns Mus musculus. Nature of the series: In vivo inhibition of ACSL1 in mouse assessed as reduction in acyl-coA production in liver administered orally using oleic acid as substrate and measured after 17 hrs. It counts as functional, organism-based.
Series [20] is described as follows: Cmax in rat at 1 mg/kg, po. Conditions: in vivo. The series is classed as ADME, organism-based. The arrangement: route oral, dose 1 mg/kg.
Series [21] deals with Cytochrome P450 2C19 (Homo sapiens, UniProt P33261). Nature of the series: Inhibition of CYP2C19 (unknown origin). The series is classed as ADME.
Series [22] can be described thus: Metabolic stability in human liver microsomes assessed as compound remaining after 30 mins. It counts as ADME, Microsome. Conditions: read-out: Stabilty.

Cytochrome P450 2C19, sequence (P33261 whole entry): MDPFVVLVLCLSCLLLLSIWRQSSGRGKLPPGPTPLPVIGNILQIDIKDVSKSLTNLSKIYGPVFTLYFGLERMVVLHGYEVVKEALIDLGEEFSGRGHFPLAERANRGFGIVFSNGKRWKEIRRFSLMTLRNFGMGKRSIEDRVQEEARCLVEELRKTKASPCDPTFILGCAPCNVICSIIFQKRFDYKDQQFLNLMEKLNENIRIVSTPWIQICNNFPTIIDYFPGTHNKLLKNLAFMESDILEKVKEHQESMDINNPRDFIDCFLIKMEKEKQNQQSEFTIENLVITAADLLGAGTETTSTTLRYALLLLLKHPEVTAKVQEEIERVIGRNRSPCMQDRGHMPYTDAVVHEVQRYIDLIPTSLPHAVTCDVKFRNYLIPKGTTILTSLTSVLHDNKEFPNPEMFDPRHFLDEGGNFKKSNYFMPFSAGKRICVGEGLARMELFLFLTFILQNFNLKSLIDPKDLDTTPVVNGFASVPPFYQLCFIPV
Fatty acid CoA ligase Acsl3, sequence (O95573 whole entry): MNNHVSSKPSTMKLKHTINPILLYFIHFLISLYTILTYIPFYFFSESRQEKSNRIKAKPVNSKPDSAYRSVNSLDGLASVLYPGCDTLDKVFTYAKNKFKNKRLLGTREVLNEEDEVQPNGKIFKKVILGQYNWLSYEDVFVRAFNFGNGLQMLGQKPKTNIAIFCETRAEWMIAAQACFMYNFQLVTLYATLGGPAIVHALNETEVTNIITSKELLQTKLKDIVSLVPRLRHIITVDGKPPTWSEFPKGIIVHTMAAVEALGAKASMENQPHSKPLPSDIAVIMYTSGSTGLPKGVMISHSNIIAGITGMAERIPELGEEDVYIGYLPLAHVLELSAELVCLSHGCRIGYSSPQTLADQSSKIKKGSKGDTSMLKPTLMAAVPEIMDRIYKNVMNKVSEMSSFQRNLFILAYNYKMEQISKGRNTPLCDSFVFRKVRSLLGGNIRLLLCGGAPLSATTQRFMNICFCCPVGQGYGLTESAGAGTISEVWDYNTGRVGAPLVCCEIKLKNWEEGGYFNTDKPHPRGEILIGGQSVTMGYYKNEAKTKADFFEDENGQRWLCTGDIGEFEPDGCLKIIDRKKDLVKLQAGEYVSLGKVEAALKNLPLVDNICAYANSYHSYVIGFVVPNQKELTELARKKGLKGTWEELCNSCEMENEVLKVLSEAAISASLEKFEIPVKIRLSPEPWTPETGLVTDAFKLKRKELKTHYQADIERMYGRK
Cytochrome P450 3A4, sequence (P08684 whole entry): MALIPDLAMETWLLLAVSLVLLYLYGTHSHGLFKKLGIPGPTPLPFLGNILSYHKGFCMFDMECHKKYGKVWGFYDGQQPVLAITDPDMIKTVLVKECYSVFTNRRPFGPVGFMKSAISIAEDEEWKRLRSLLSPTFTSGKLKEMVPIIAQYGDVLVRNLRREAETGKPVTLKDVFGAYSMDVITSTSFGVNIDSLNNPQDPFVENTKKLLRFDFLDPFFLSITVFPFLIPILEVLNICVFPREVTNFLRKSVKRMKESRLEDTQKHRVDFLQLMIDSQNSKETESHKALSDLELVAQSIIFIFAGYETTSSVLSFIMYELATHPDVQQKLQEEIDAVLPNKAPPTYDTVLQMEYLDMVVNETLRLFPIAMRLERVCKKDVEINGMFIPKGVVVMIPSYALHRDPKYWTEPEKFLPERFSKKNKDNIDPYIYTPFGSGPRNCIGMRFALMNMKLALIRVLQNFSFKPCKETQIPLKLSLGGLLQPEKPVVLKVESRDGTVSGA
Cytochrome P450 2C9, sequence (P11712 whole entry): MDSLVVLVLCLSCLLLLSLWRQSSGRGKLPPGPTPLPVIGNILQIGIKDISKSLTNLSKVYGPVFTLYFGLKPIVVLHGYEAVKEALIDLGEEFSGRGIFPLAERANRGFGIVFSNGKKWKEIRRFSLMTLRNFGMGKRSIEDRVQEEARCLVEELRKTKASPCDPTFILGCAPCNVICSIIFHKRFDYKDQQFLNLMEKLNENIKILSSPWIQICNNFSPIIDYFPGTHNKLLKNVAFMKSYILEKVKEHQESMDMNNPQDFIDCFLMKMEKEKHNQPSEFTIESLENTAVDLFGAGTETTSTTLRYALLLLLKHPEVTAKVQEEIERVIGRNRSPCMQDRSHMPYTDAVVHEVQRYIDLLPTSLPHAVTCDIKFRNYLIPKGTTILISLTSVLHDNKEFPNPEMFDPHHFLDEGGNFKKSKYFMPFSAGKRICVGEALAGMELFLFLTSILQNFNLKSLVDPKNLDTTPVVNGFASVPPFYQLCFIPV
Long-chain-fatty-acid--CoA ligase 4, sequence (O60488 whole entry): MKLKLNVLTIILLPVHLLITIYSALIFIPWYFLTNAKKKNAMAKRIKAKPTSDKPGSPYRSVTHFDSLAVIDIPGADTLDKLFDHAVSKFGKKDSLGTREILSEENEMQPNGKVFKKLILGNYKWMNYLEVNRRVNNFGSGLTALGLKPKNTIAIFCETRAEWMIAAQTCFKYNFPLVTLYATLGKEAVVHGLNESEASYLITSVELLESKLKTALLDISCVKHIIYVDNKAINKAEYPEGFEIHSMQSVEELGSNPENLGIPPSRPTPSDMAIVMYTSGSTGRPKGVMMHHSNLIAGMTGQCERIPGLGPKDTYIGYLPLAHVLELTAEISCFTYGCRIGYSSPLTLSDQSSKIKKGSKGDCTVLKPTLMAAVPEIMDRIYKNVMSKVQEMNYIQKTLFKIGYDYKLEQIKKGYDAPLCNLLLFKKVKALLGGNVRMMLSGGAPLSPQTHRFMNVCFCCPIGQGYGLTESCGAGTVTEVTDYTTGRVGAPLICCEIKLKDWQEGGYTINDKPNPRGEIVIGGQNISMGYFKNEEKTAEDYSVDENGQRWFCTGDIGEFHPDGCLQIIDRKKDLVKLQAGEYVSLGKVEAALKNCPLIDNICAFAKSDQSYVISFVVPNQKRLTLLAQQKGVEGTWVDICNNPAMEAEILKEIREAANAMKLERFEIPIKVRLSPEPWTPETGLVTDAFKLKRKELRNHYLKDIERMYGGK
Cytochrome P450 2D6, sequence (P10635 whole entry): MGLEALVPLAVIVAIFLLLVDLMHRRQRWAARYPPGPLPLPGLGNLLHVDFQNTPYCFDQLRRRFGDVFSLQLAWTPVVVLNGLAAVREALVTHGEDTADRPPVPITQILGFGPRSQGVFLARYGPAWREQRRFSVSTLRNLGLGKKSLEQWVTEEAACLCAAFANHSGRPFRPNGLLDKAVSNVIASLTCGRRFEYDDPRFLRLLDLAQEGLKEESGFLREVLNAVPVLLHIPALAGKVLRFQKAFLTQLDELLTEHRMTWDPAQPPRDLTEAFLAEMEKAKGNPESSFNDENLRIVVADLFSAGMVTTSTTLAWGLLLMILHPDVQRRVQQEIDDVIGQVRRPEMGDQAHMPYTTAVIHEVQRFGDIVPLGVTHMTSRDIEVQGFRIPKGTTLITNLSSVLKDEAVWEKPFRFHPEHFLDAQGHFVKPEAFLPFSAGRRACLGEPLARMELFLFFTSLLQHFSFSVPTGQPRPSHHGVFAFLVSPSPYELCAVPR

Regarding `Cc1cccc(Cc2nc3cc(O[C@H]4CC[C@@H](C(=O)O)CC4)ccc3n2C)c1`, the 50% inhibitory concentration (IC50) is 0.03 µM in series [1]; above 20 µM in series [5]; above 20 µM in [7]; above 20 µM in series [9]; above 200 µM in series [13]; above 200 µM in series [14]. Further, the IC50 in series [17] was 0.042 µM; in series [21], above 20 µM. In addition, the half-life in [2] was 2.8 h. Besides, in series [3], the bioavailability came to 119%. Besides, the inhibition entry in series [4] and in series [19] was “Dose-dependent effect” throughout. The molecule also had a concentration for an effect of 30% (IC30) in series [6] of 0.039 µM. The results for the solubility in series [8] and in series [16] were 307 µg/mL (≈ 811 µM) and 8.6 µg/mL (≈ 22.7 µM), respectively. The molecule further showed a free fraction (fraction unbound) in series [10] of 0.017. For the same molecule, the clearance in series [11] amounted to 1.75 mL/min/kg. Moreover, the results for the remaining at 0.5 h in [12], in series [18] and in series [22] were 99%, 93% and 96%, respectively. In [15], the AUC is 4970 ng·h/mL. The same molecule returned a maximum concentration (Cmax) in series [20] of 1110 ng/mL.
